Results as given in patent US20070287703A1, “Fused Pyrimidones Useful in the Treatment and the Prevention of Cancer” (AstraZeneca AB, priority 2004, published 2007).

Biological target: T1, recombinant HsEg5 motor domain (amino acids 1-369-8His) (Homo sapiens, UniProt P52732)
T1 construct: recombinant HsEg5 motor domain (amino acids 1-369-8His); 8His (C)
T1 sequence (P52732 1-369): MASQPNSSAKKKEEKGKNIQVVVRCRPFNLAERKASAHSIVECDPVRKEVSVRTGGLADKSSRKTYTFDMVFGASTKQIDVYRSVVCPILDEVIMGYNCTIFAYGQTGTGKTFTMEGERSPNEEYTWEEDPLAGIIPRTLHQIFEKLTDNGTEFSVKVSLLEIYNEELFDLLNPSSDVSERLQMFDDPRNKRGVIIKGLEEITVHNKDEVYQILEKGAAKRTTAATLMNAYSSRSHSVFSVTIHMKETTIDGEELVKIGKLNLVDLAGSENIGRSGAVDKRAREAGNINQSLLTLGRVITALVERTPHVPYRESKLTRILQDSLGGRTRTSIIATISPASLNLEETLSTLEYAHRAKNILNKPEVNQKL
Assay: Malachite Green Assay of Eg5 motor ATPase activity
Format: biochemical
Conditions: 6 nM enzyme, 300 μM ATP, 908 nM polymerized tubulin, 20 min pre-incubation, 20 min reaction at room temperature
Protocol: Enzymatic activity of the Eg5 motor and effects of inhibitors was measured using a malachite green assay, which measures phosphate liberated from ATP, and has been used previously to measure the activity of kinesin motors (Hackney D D, and Jiang W, Assays for kinesin microtubule-stimulated ATPase activity; Methods in Molecular Biology vol 164:65-71 (2001)). Enzyme was recombinant HsEg5 motor domain (amino acids 1-369-8His) and was added at a final concentration of 6 nM to 100 μl reactions. […]
5 μl of compound diluted in 12% DMSO was added to the wells of 96 well plates. […] The reactions were then quenched by the addition of 150 μl malachite green/ammonium molybdate reagent, and absorbance read at 650 nanometers exactly 5 min after quench using a Spectramax Plus plate reader (Molecular Devices). Data was graphed and IC50s calculated using ExCel Fit (Microsoft).

## CCC(c1nc2n(c(=O)c1Cc1ccccc1)CCCS2)N(CCCN)C(=O)c1ccc(OC)cc1 (stereo not shown) [Example 4, 3,4-Dihydro-6-oxo-7-benzyl-8-{1-[N-(4-methoxybenzoyl)-N-(3-aminopropyl)amino]propyl}-2H,6H-pyrimido[2,1-b][1,3]thiazine]
  IC50: 331 nM
